Assay results from ChEMBL document CHEMBL1133029, “Synthesis of hybrid distamycin-cysteine labeled with 99mTc: a model for a novel class of cancer imaging agents” (Bioorg Med Chem Lett, 2000).

Experiments:
[1] = system: L1210; assay: Inhibitory activity against L1210 murine leukemic cell line after 48 hr of exposure to compound; format: functional, cell-based; conditions: Mus musculus, L1210, 48 h
[2] = system: K562; assay: Concentration required for inhibitory activity was evaluated against human leukemic K562 cell line; format: functional, cell-based

| IC50 [1] [µM] | SMILES | Concentration [2] [µM] |
| --- | --- | --- |
| 9.64 | Cn1cc(NC(=O)c2cc(NC(=O)c3cc(NC=O)cn3C)cn2C)cc1C(=O)NCCC(=N)N | 12 |
| 7.96 | Cn1cc(NC(=O)c2cc(NC(=O)c3cc(NC(=O)[C@@H](N)CS)cn3C)cn2C)cc1C(=O)NCCC(=N)N | 10 |
